{"source": "patent US9133255B2", "about": "“Products and methods using soy peptides to lower total and LDL cholesterol levels” (SOY LABS, LLC, priority 2006, dated 2015)", "key": {"[1]": {"test_system": "non-tumorigenic (RWPE-1) prostate cells", "conditions": "2 uM lunasin, cited from earlier work"}, "[2]": {"target": "T1, histone H3 acetylation by PCAF (Homo sapiens, UniProt P68431)", "T1 construct": "The core histones isolated from untreated HeLa cells were used as a negative control; purchased Upstate/Millipore; host or cells: HeLa cells (histones)", "assay": "HAT assay with PCAF, HeLa core histones", "format": "biochemical", "conditions": "FIG. 8", "experimental": "A confirmatory experiment to determine the biological activity of digested and undigested LeSC and LeSC+SF was conducted using a different core histone template. This time we used the core histones extracted from HeLa tumor cells. Unlike the chicken erythrocyte cells, core histones from sodium butyrate treated HeLa cells are commercially available (Upstate/Millipore, Piscataway, N.J.), and can be used as a positive control for histone acetylation. The core histones isolated from untreated HeLa cells were used as a negative control (low levels of histone acetylation) and as template for the HAT assay.\nThe HAT bioactivity assay was conducted using acid extracted core histones from HeLa cells (Upstate/Millipore) as a template (temp (−) control) for the PCAF catalyzed HAT reaction. […] The numbers below the legend indicate relative densitometer readings normalized using immunosignal from the template (temp). […]\nLeSC+SF was partially digested by mixing it with freshly prepared pancreatin solution (10 ug/mL of distilled water) in a 1:0.5, (w/w) ratio. […] However, the conditions for the partial digestion of LeSC+SF has to be determined empirically by analyzing digestion products for lunasin content (FIG. 6) and biological activity using the HAT assay (FIG. 8.)"}, "[3]": {"conditions": "cited from earlier work"}, "[4]": {"test_system": "skin tumor", "conditions": "mice, applied topically, ethanol as delivery system; cited from earlier work"}, "[5]": {"test_system": "tumorigenic (RWPE-2) prostate cells", "conditions": "2 uM lunasin, cited from earlier work"}, "[6]": {"test_system": "histone H3 and H4 acetylation", "conditions": "cited from earlier work"}, "[7]": {"test_system": "HMG-CoA reductase", "assay": "HMG-CoA reductase expression in HepG2 cells, Western blot", "format": "cell-based", "conditions": "10 uM synthetic lunasin 24 h, cholesterol-free media 24 h, densitometry, FIG. 2", "experimental": "(§1) In cell culture of HepG2 liver cells, it is possible to activate SREBP and increase the expression of HMG-CoA reductase and LDL-receptor by removing cholesterol in the growth media. This can be achieved by exposing the cells to serum-free media for 24 hours (31, 32).\n(§2) In the first experiment, HepG2 cells (1×10^6) were treated with or without 10 uM synthetic lunasin in DMEM with 10% FBS for 24 hours before growth media was replaced with cholesterol-free media to activate SREBP. After 24 hours, total protein was extracted and 10 ug protein was loaded onto 10% Tris-glycine gels, electroblotted onto nitrocellulose membrane, and immunostained with primary antibodies raised against HMG-CoA reductase and actin (to show equal loading of proteins). Spot densitometer values are obtained by digital scanning and Un-Scan It software, and represent mean and standard deviation of data from three separate experiments."}, "[8]": {"target": "deacetylated histone H4 (Homo sapiens, UniProt P62805)", "conditions": "cited from earlier work"}, "[9]": {"test_system": "p21/WAF1/Cipi", "conditions": "NIH 3T3 cells pre-treated 24 hours, eight days after E1A transfection; cited from earlier work"}, "[10]": {"test_system": "Sp1", "assay": "Sp1 level in HepG2 cells, Western blot", "format": "cell-based", "conditions": "10 uM synthetic lunasin", "experimental": "Unlike HMG-CoA reductase, SREBP activation of LDL-receptor by sterol depletion requires increased recruitment of Sp1 co-activator to a site adjacent to SREBP in the promoter/regulatory sequence of LDL-receptor gene (25). […] To test this hypothesis, the level of Sp1 was determined in lunasin-treated growth media and cholesterol-free media by Western analysis using Sp1 antibody, as follows: HepG2 cells (1×10^6) were grown from confluence in DMEM with 10% FBS for 24 hours before growth media was replaced with fresh growth media or cholesterol-free media (to activate SREBP) and treated with, or without 10 uM synthetic lunasin. After 24 hours, total protein was extracted from each treatment and 10 ug protein loaded onto 10% Tris-glycine gels, electroblotted onto nitrocellulose membrane, and immunostained with primary antibodies raised against Sp1 and actin (to show equal loading of proteins). Spot densitometer values were obtained by digital scanning and Un-Scan It software and represent data from one experiment."}, "[11]": {"test_system": "LDL-receptor", "assay": "LDL-receptor expression in HepG2 cells, Western blot", "format": "cell-based", "conditions": "10 uM synthetic lunasin 24 h, cholesterol-free media 24 h, densitometry, FIG. 3", "experimental": "as §1\nas §2, with “the second” for “the first”, “media is” for “media was”, “ug proteins” for “ug protein was”, “against LDL-receptor” for “against HMG-CoA reductase”, “values were” for “values are”"}, "[12]": {"test_system": "E1A-transfected cells", "conditions": "cited from earlier work"}, "[13]": {"target": "T2, histone H3 acetylation by PCAF (Gallus gallus, UniProt P84229)", "T2 construct": "Core histones purified from chicken erythrocyte cells were used as templates in histone acetylase (HAT) reactions; purchased Upstate/Millipore; host or cells: chicken erythrocytes (histones)", "assay": "H3 histone acetyltransferase (HAT) assay with PCAF, chicken erythrocyte core histones", "format": "biochemical", "conditions": "vs untreated control, FIG. 7", "source_text": "The invention further provides an in vitro assay that can be used to screen potential sources of lunasin or analogues, fragments or variants of lunasin for biologically active material useful in the methods of the present invention. In one embodiment of the present invention, core histones purified from acid-extracted proteins of HeLa cells and chicken erythrocyte cells as well as recombinant histone H3 (commercially available from Upstate/Millipore) are used as templates in histone acetylase (HAT) reactions using PCAF histone acetylase enzyme in the presence or absence of lunasin. […] Chemiluminescent signals from antibody complexes can be visualized using standard chemiluminescent reagents and exposed to Kodak BioMAX film, developed and spot densitometer measured by using digital scanner and UN-SCAN-IT software program from Silk Scientific (Orem, Utah).\nBiological activity of LeSC (A), LeSC+SF (B), digested LeSC+SF (C), digested LeSC (D), digested soy protein isolate (E) and digested soy concentrate (F) was measured using the H3 histone acetyltransferase (HAT) assay (see Example 8.) Around 100 mg total protein of LeSC, LeSC+SF, soy protein isolate and soy concentrate were digested by mixing pancreatin (Sigma Life Sciences, Saint Louis, Mo.) at 1:1 (w/w) and incubating for 30 min. at 40° C. […]"}, "[14]": {"test_system": "C3H/T101/2 cells", "conditions": "cited from earlier work"}}}
{"substance": "lunasin: natural, synthetically or recombinantly obtained soybean lunasin polypeptide (SEQ ID 2), small subunit of a cotyledon-specific 2S albumin", "values": [{"measurement": "number of genes with greater than twofold change in expression", "setting": "[1]; 24 hours, of 14500 genes, RWPE-1 and RWPE-2 together", "value": 123, "unit": "genes"}, {"measurement": "number of genes up-regulated", "setting": "[1]; RWPE-1 cells, 24 hours", "value": 121, "unit": "genes"}, {"measurement": "genes down-regulated", "setting": "[1]; non-tumorigenic epithelial cells", "value": "No genes were down-regulated"}, {"measurement": "H3 acetylation by PCAF (biological activity), undigested sample", "setting": "[2]", "value": "Significant reduction in H3 acetylation"}, {"measurement": "water solubility", "setting": "[3]", "value": "water soluble"}, {"measurement": "skin tumor formation", "setting": "[4]", "value": "reduce skin tumor formation"}, {"measurement": "number of genes up-regulated", "setting": "[5]; RWPE-2 cells, 24 hours", "value": "two"}, {"measurement": "genes down-regulated", "setting": "[5]; tumorigenic epithelial cells", "value": "No genes were down-regulated"}, {"measurement": "histone H3 and H4 acetylation", "setting": "[6]", "value": "inhibits histone H3 and H4 acetylation"}, {"measurement": "reduction of HMG-CoA reductase expression", "setting": "[7]", "value": "more than 50%"}, {"measurement": "binding to histones", "setting": "[8]", "value": "binds preferentially to deacetylated histone H4"}, {"measurement": "increase in p21/WAF1/Cipi protein levels", "setting": "[9]", "value": "five-fold"}, {"measurement": "further increase of Sp1 levels", "setting": "[10]; cholesterol-free media, FIG. 4, one experiment", "value": "~60", "unit": "%"}, {"measurement": "Sp1 levels, lunasin-treated vs control", "setting": "[10]; growth media, FIG. 4", "value": "not significantly different"}, {"measurement": "increase of LDL-receptor expression", "setting": "[11]", "value": "more than 60%"}, {"measurement": "apoptosis", "setting": "[12]", "value": "induces apoptosis"}, {"measurement": "H3 acetylation by PCAF (biological activity), undigested sample", "setting": "[13]", "value": "significant reduction in H3 acetylation"}, {"measurement": "reduction of foci formation", "setting": "[14]; cells pre-treated with lunasin, exposed to DMBA and MCA", "value": 70, "unit": "%"}, {"measurement": "concentration sufficient to suppress foci formation", "setting": "[14]; single 24 hour exposure, assays lasted six weeks", "value": 125, "unit": "nM"}]}
